Where two headings read alike, the source gives them in different places.
Assays:
[1] = test system: human colon carcinoma HCT 116
Description: Mice were over 18 g at start of treatment after an acclimatization time of at least 5 days. […] The mice were housed on a 12 hours light/dark cycle.
Human colon carcinoma HCT 116 cells were purchased at American Type Culture Collection [(ATCC), Rockville, Md., USA). The HCT 116 cells were cultured in Dulbecco's modified Eagle's medium (DMEM) (Invitrogen).
The animals required to begin a given experiment were pooled and implanted monolaterally on day 0. Treatments were administered on measurable tumors. The solid tumors were allowed to grow to the desired volume range (animals with tumors not in the desired range were excluded). The mice were then pooled and unselectively distributed to the various treatment and control groups. […] The dosages are expressed in mg/kg, based on the body weight at start of therapy. Mice were checked daily, and adverse clinical reactions noted. Each group of mice was weighed as a whole daily until the weight nadir was reached. Then, groups were weighed once to thrice weekly until the end of the experiment. Tumors were measured with a caliper 2 to 3 times weekly until final sacrifice for sampling time, tumor reached 2000 mm^3 or until the animal died (whichever comes first). Solid tumor volumes were estimated from two-dimensional tumor measurements and calculated according to the following equation:
Changes in tumor volume for each treated (T) and control (C) group were calculated for each tumor by subtracting the tumor volume on the day of first treatment (staging day) from the tumor volume on the specified observation day. The median ΔT is calculated for the treated group, and the median ΔC is calculated for the control group. Then the ratio ΔT/ΔC is calculated and expressed as a percentage. The dose is considered as therapeutically active when ΔT/ΔC is lower than 40% and very active when ΔT/ΔC is lower than 10%.
The percent of tumor regression is defined as the % of tumor volume decrease in the treated group at a specified observation day compared to its volume on the first day of treatment. At a specific time point and for each animal, % regression is calculated. The median % regression is then calculated for the group using the following equation:
Partial regression: Regressions are defined as partial if the tumor volume decreases to 50% of the tumor volume at the start of treatment.
Complete regression: The CR is achieved when tumor volume=0 mm^3 (CR is considered when tumor volume cannot be recorded).

[2] = test system: PC-3, U87-MG, A2058, WM-266-4 and MCF7 xenografts; conditions: oral administration alone; PTEN-deficient PC-3, U87-MG, A2058, WM-266-4 or PIK3CA mutated MCF7 xenografts; cited from earlier work
[3] = test system: human primary colon tumors CR-LRB-013P; assay: antitumor activity against subcutaneous CR-LRB-013P xenografts; type: in vivo
Description: The human primary colon carcinoma CR-LRB-013P tumor model was established by implanting (SC) small tumor fragments and was maintained in SCID female mice using serial passages.
(§1) Treatments were administered on measurable tumors. […] Mice were checked daily, and adverse clinical reactions noted.
(§2) Animal body weights included the tumor weight.
(§3) The primary efficacy end points are ΔT/ΔC, percent median regression, partial and complete regressions (PR and CR). Statistical analyses were performed on SAS system release 8.2 for SUN4 via Everstat V5 software and SAS 9.2 software. A probability less than 5% (p<0.05) was considered as significant.

[4] = chemical stability of dosing stock solution; type: physicochemical; conditions: in the dark at 4° C.
Description: Compound (2a) formulation was prepared in water for injection. The stock solution was chemically stable 7 days in the dark at 4° C. […] The pH of the final solution was 3. […]

[5] = test system: human colon carcinoma HCT 116; assay: HCT116 tumor growth in fluorescence molecular tomography study; type: in vivo, SCID mice; conditions: (2a) 50 mg/kg oral daily day 11 to day 17; p=0.023
[6] = test system: HCT116 tumor vascular permeability; assay: tumor vascular permeability, Evans Blue extravasation / Dextran-Fitc; type: in vivo, SCID mice; conditions: (2a) 50 mg/kg oral daily day 11 to day 13
Description: HCT116 tumor cells were implanted subcutaneously in the intra-scapular region in SCID mice. […] Each agent was given by oral route on a daily schedule. Tumor growth was monitored throughout the experiment by callipering the tumors. To quantify tumor vascular permeability, tumors were excised under ketamine/Xylazine (120/6 mg/kg ip) anesthesia at day 13, 4 hours post last treatment, 30 min after 0.5% Evans Blue iv injection, and 2 min post Dextran-Fitc 100 mg/kg iv injection. Tumors were then snap frozen, and 25 μm sections obtained for fluorescence quantification. Tumors sections were imaged with Icyte at 488 nm for vascular Dextran-Fitc determination and at 633 nm for Evans-Blue extravasation determination. Respective fluorescence were quantified as the sum of integral phantoms of fluorescence intensity and expressed as the mean ratio of Evans-Blue signal/Dextran-Fitc Signal.

[7] = test system: human primary colon tumors CR-LRB-009C; assay: antitumor activity against subcutaneous CR-LRB-009C xenografts; type: in vivo
Description: The human primary colon carcinoma CR-LRB-009C tumor model was established by implanting (SC) small tumor fragments and was maintained in SCID female mice using serial passages.
as §1, §2, §3

[8] = test system: human pancreatic MiaPaCa-2; assay: antitumor activity against subcutaneous MiaPaCa-2 xenografts; type: in vivo, nude mice; conditions: XL-147 50 mg/kg po QD, 21 days; 50 mg/kg
Description: The human pancreatic cancer cell line MiaPaCa-2 (American Type Culture Collection, Manassas Va.), was cultured in MEM medium containing 10% fetal bovine serum, 1% essential amino acid, 1% sodium pyruvate (Life Technologies, Carlsbad, Calif.). […] Cells were re-suspended in PBS (Life Technologies, Carlsbad, Calif.) and then mixed 1:1 with Matrigel (BD Biosciences, San Jose, Calif.). Cells were stored at 4° C. until implantation. MiaPaCa-2 cells (10×10^6 in a 200 μl PBS:Matrigel (1:1) suspension) were subcutaneously injected into the right flank area of female nude (Crl:NU-Foxn1nu) mice (6-8 weeks old, Charles River Laboratories, Wilmington, Mass.). All mice in this study were used according to the guidelines approved by the EMD-Serono Institutional Care and Animal Use Committee (IACUC), #07-003. Developing tumors located in the right flank area of female nude mice were measured over time with digital calipers. […] The remaining tumor-bearing mice were randomized into seven experimental groups (n=9), so that each group had the same mean tumor volume. […] The treatments began on the seventh day following implantation of the Miapaca-2 cells, which was designated as Day 0 for data evaluation purposes. […] Body weights and tumor volumes were assessed twice per week post treatment initiation. […] Efficacy was determined by analyzing tumor volumes and the percent ΔT/ΔC (% ΔT/ΔC). Tumor volume was determined by using the tumor length (1) and width (w) measurements and calculating the volume with the equation 1*w^2/2. The length was measured along the longest axis of the tumor and width was measured perpendicular to that length. The mean percent of actual tumor growth inhibited by the treatments was calculated as follows: [% ΔT/ΔC=(([…]))×100%], where TV=tumor volume, f=final, i=initial and Ctrl=control group. Tolerability was assessed by regarding percent body weight difference during the treatment period. Percent body weight difference was calculated as follows: [% Body weight difference=(BWc-BWi)/BWi×100%], where BW=body weight, c=current, i=initial.

[9] = study 1, (2a) 50 mg/kg PO daily days 11-18
[10] = study 1, (2a) 75 mg/kg PO daily days 11-18
[11] = study 2, (2a) 50 mg/kg PO daily days 11-18
[12] = study 2, (2a) 75 mg/kg PO daily days 11-18
[13] = study 3, (2a) 50 mg/kg PO daily days 11-20
[14] = study 3, (2a) 75 mg/kg PO daily days 11-20
[15] = (2a) 75 mg/kg PO daily days 33-50
[16] = as single agents or used in combination
[17] = (2a) 75 mg/kg PO daily days 11-21

With `COc1ccc(Cl)c(Nc2nc3ccccc3nc2NS(=O)(=O)c2cccc(NC(=O)C(C)(C)N)c2)c1` [Compound (2a), N-(3-{[(3-{[2-chloro-5-(methoxy)phenyl]amino}quinoxalin-2-yl)amino]sulfonyl}phenyl)-2-methylalaninamide] the “Average body weight change in % per mouse at nadir” value [1, 9] was −5.8 (18) %, the Drug death [1, 9] was 0/7 and the “Median ΔT/ΔC in % day 18” value [1, 9] was 62%. The “Regressions Complete” value [1, 9] was 0/7, the “Regressions Partial” value [1, 9] was 0/7 and the “Average body weight change in % per mouse at nadir” value [1, 10] was −8.3 (18) %. For the same compound, the Drug death [1, 10] was 0/7, the “Median ΔT/ΔC in % day 18” value [1, 10] was 80% and the “Regressions Complete” value [1, 10] was 0/7. For the same compound, the “Regressions Partial” value [1, 10] was 0/7, the tolerability ([1]; study 1, as single agents or used in combination) was “well-tolerated, inducing minimal BWL” and the “Average body weight change in % per mouse at nadir” value [1, 11] was −7.7 (18) %. The Drug death [1, 11] was 0/7, the “Median ΔT/ΔC in % day 18” value [1, 11] was 52% and the “Regressions Complete” value [1, 11] was 0/7. The “Regressions Partial” value [1, 11] was 0/7, the “Average body weight change in % per mouse at nadir” value [1, 12] was −6.7 (18) % and the Drug death [1, 12] was 0/7. The “Median ΔT/ΔC in % day 18” value [1, 12] was 56%, the “Regressions Complete” value [1, 12] was 0/7 and the “Regressions Partial” value [1, 12] was 0/7. For the same compound, the tolerability ([1]; study 2, as single agents) was “well-tolerated, inducing minimal BWL”, the “Average body weight change in % per mouse at nadir” value [1, 13] was −7.8 (19) % and the Drug death [1, 13] was 0/10. For the same compound, the “Median ΔT/ΔC in % day 20” value [1, 13] was 66%, the “Regressions Complete” value [1, 13] was 0/10 and the “Regressions Partial” value [1, 13] was 0/10. The “Average body weight change in % per mouse at nadir” value [1, 14] was −8.5 (20) %, the Drug death [1, 14] was 0/10 and the “Median ΔT/ΔC in % day 20” value [1, 14] was 64%. The “Regressions Complete” value [1, 14] was 0/10, the “Regressions Partial” value [1, 14] was 0/10 and the tolerability ([1]; study 3, as single agents) was “well-tolerated, inducing minimal BWL”. The tumor growth [2] was “inhibits tumor growth”, the “Average body weight change in % per mouse at nadir” value [3, 15] was −9.2 (50) % and the Drug death [3, 15] was 0/7. The “Median ΔT/ΔC in % day 50” value [3, 15] was 53%, the “Regressions Complete” value [3, 15] was 0/7 and the “Regressions Partial” value [3, 15] was 0/7. The tolerability [3, 16] was “tolerated, inducing some BWL but not reaching toxicity”, the “stock solution chemically stable” value ([4]; in 1N HCl and water for injection, pH 3) was 7 days and the “stock solution chemically stable” value ([4]; in water for injection) was 7 days. The “ΔT/ΔC at the end of study” value [5] was 36%, the “decrease of the Evans-Blue/Dextran-Fitc ratio compared to control” value [6] was −8% and the “Average body weight change in % per mouse at nadir” value [7, 17] was −15.8 (21) %. For the same compound, the Drug death [7, 17] was 0/7, the “Median ΔT/ΔC in % day 21” value [7, 17] was 39% and the “Regressions Complete” value [7, 17] was 0/7. The “Regressions Partial” value [7, 17] was 0/7, the tolerability [7, 16] was “tolerated, inducing some BWL but not reaching toxicity” and the “% ΔT/ΔC” value [8] was 71.2%.
